EC50 data for 24 molecules are collected here from patent publication US20250340510A1, “Substituted Phenylbenzenesulfonamide Derivatives and Uses Thereof” (Nine Square Therapeutics Corporation, priority 2022, published 2025).

The structures appear in SMILES notation.

One test has as its system TFEB. Put plainly: TFEB translocation assay in HeLa cells (nuclear to cytoplasmic TFEB ratio, high-content imaging). Particulars: 90 mins incubation at 37° C., ratio of nuclear to cytoplasmic TFEB. The test is classed as cell-based. On the procedure:
Example B2. TFEB Translocation Assay
Rabbit TFEB antibody, Cell Signaling Technology #4240S
PFA 16% MeOH-free, Election Microscopy Sciences #50-980-487
HCS CellMask Deep Red, ThermoFisher Scientific #H32721
Plates: Perkin Elmer Phenoplate #605730 black optically clear, tissue culture treated 384-well plate
Example B2.2 Method, Day 1: Cells Seeded in 384WP
Cells were seeded in the afternoon. The outer one row of the plate was not used to avoid outer well edge effects.
HeLa cells were detached using trypsin, and the cells were counted using a cell counter.
4000 HeLa cells were seeded per well in […] growth media (DMEM with 10% FBS, 1 mM sodium pyruvate and Pen-Strep).
Example B2.3 Method, Day 2: Assay with TRPML1 Compounds+Staining
Compounds were added to cells using a Tecan D300e dispenser.
Cells were incubated for 90 mins at 37° C. with the compounds (compound range: 80 nM-[…] (2× step dilution—8 dilution steps, 3 replicates per condition)
The cells were fixed by adding 16.5 μL of 16% PFA (4% final) and incubating for 15 min at room temperature.
The cells were washed with 3× in PBS-TX (PBS+0.1% Triton X-100)−1×100 μL followed by 2×50 μL.
The cells were blocked and permeabilized in 30 μL of blocking buffer (PBS-TX+5% goat serum) for 1 h.
The cells were incubated with TFEB antibody (1:200, CST 4240S) in 30 μL blocking buffer overnight at 4° C. The plates were kept damp to avoid evaporation.
Example B2.4 Method, Day 3: Staining+Imaging
The cells were washed 3× in PBS-TX—3×100 μL with a Biotek EL406 washer.
The cells were incubated with Goat anti-Rb Alexa-Fluor 488 (1:2000), cell mask (1:10,000) and Hoechst (1:10,000) in 30 μL blocking buffer for 1 h at room temperature. The solution was dispensed using a 5 μL peristaltic cassette (EL406).
The cells were washed 3× in PBS-TX—3×100 μL with a EL406 washer, then […] PBS was dispensed using a 5 μL peristaltic cassette (EL406).
The cells were imaged on an Operetta CLS High-content imaging system using a 20× water immersion objective (NA 1.0) the same day.
Image analysis was performed using Harmony V4.9 (Perkin Elmer). Briefly, nuclei were segmented from background-corrected images using Hoechst intensity, and cell body segmented using HCS CellMask DeepRed. A sliding parabola filter was applied to the AlexaFluor 488 channel (TFEB), before sum pixel intensity in the nuclear and cytoplasmic regions was calculated. A ratio of nuclear to cytoplasmic TFEB was used to define TFEB translocation from the cytosolic to nuclear compartment. The EC50 values derived by fitting the data to a sigmoidal dose response curve using Prism 9 (Graphpad).

The target in the next test is TRPML1 (Homo sapiens, UniProt Q9GZU1). The test is described as follows: Calcium flux in HEK293 overexpressing TRPML1 plasma membrane variant (FLIPR, Calcium 6 dye). Particulars: HEK293/TRPML1-PM clone A5 cells; 4-parameter logistic fit; read-out: TRPML1 calcium flux (FLIPR) dose response: EC50. The test is classed as cell-based. Put shortly: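 HEK293 clone expressing plasma-membrane-targeted TRPML1 (N- and C-terminal dileucine motifs deleted), loaded with Calcium 6 dye for 2 h at 37 °C in HBSS/20 mM HEPES pH 7.4. Fluorescence recorded 10 s baseline then 170 s after compound addition. Max-minus-min response over baseline fitted by 4-parameter logistic for EC50.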

Usually EC50 stands for the concentration giving half of the maximal effect.

TRPML1, sequence (Q9GZU1 17-572 limits assumed): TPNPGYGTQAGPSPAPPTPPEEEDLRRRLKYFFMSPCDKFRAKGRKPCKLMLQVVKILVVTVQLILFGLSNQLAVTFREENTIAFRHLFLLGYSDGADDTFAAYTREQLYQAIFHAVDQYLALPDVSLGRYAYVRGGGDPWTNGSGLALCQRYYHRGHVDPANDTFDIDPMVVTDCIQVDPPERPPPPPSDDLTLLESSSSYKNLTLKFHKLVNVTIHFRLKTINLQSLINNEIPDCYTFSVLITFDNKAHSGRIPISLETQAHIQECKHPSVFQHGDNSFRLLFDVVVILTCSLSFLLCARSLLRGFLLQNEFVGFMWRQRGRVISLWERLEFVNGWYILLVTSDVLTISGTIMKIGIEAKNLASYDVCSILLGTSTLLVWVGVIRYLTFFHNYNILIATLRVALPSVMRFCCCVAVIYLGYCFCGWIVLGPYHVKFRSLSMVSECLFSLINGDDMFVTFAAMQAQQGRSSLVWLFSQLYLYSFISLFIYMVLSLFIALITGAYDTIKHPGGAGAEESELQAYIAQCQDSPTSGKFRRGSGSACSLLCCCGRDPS

Consider `CN(Cc1cncs1)c1ccccc1NS(=O)(=O)c1ccc(S(=O)(=O)N(C)C)cc1` [Compound 55, N1,N1-dimethyl-N4-(2-(methyl(thiazol-5-ylmethyl)amino)phenyl)benzene-1,4-disulfonamide], for which the EC50 in the test on TFEB (Homo sapiens, HeLa, 1.5 h) stood at 870 nM; on TRPML1 it was 250 nM.
For `CN(Cc1cscn1)c1c(Cl)cccc1NS(=O)(=O)c1ccc(S(=O)(=O)N(C)C)cc1` [Compound 64, N1-(3-chloro-2-(methyl(thiazol-4-ylmethyl)amino)phenyl)-N4,N4-dimethylbenzene-1,4-disulfonamide] the same measures were 1390 nM and 453 nM.
For the molecule `CN(CC12CC(C)(C1)C2)c1ccccc1NS(=O)(=O)c1ccc(S(=O)(=O)N(C)C)cc1` [Compound 65, N1,N1-dimethyl-N4-(2-(methyl((3-methylbicyclo[1.1.1]pentan-1-yl)methyl)amino)phenyl)benzene-1,4-disulfonamide], the EC50 in the test with TFEB (Homo sapiens, HeLa, 1.5 h) was found to be 396 nM; at TRPML1, 319 nM.
With `CN(CC12CC(C1)C2)c1ccccc1NS(=O)(=O)c1ccc(S(=O)(=O)N(C)C)cc1` [Compound 66, N1-(2-((bicyclo[1.1.1]pentan-1-ylmethyl)(methyl)amino)phenyl)-N4,N4-dimethylbenzene-1,4-disulfonamide], the EC50 with TFEB (Homo sapiens, HeLa, 1.5 h) was determined as 927 nM; at TRPML1 it was 236 nM.
For `CC(C)CCN(C)c1c(Cl)cccc1NS(=O)(=O)c1ccc(S(=O)(=O)N(C)C)cc1` [Compound 67, N1-(3-chloro-2-(isopentyl(methyl)amino)phenyl)-N4,N4-dimethylbenzene-1,4-disulfonamide] the same measures were 353 nM and 420 nM.
Regarding `CN(Cc1cscn1)c1c(F)cccc1NS(=O)(=O)c1ccc(S(=O)(=O)N(C)C)cc1` [Compound 68, N1-(3-fluoro-2-(methyl(thiazol-4-ylmethyl)amino)phenyl)-N4,N4-dimethylbenzene-1,4-disulfonamide], the EC50 in the test with TFEB (Homo sapiens, HeLa, 1.5 h) was determined as 2230 nM; at TRPML1, 1030 nM.
On to `CN(CC1CCC1)c1c(Cl)cccc1NS(=O)(=O)c1ccc(S(=O)(=O)N(C)C)cc1` [Compound 69, N1-(3-chloro-2-((cyclobutylmethyl)(methyl)amino)phenyl)-N4,N4-dimethylbenzene-1,4-disulfonamide], for which the EC50 with TFEB (Homo sapiens, HeLa, 1.5 h) worked out at 339 nM; at TRPML1 it was 421 nM.
As to `CN(Cc1cncs1)c1c(F)cccc1NS(=O)(=O)c1ccc(S(=O)(=O)N(C)C)cc1` [Compound 70, N1-(3-Fluoro-2-(methyl(thiazol-5-ylmethyl)amino)phenyl)-N4,N4-dimethylbenzene-1,4-disulfonamide], the EC50 with TFEB (Homo sapiens, HeLa, 1.5 h) turned out to be 6960 nM; on TRPML1, 1340 nM.
On the same counts, the results for `Cc1cccc(NS(=O)(=O)c2ccc(S(=O)(=O)N(C)C)cc2)c1N(C)Cc1cscn1` [Compound 71, N1,N1-dimethyl-N4-(3-methyl-2-(methyl(thiazol-4-ylmethyl)amino)phenyl)benzene-1,4-disulfonamide] are 4040 nM and 818 nM.
Turning to `Cc1cccc(NS(=O)(=O)c2ccc(S(=O)(=O)N(C)C)cc2)c1N(C)Cc1cncs1` [Compound 72, N1,N1-Dimethyl-N4-(3-methyl-2-(methyl(thiazol-5-ylmethyl)amino)phenyl)benzene-1,4-disulfonamide], the EC50 with TFEB (Homo sapiens, HeLa, 1.5 h) stood at 1760 nM; on TRPML1 it was 572 nM.
For `CN(Cc1cncs1)c1c(Cl)cccc1NS(=O)(=O)c1ccc(S(=O)(=O)N(C)C)cc1` [Compound 73, N1-(3-chloro-2-(methyl(thiazol-5-ylmethyl)amino)phenyl)-N4,N4-dimethylbenzene-1,4-disulfonamide] the same measures were 4850 nM and 996 nM.
With `CCCN(C)c1c(Cl)cccc1NS(=O)(=O)c1ccc(S(=O)(=O)N(C)C)cc1` [Compound 74, N1-(3-chloro-2-(methyl(propyl)amino)phenyl)-N4,N4-dimethylbenzene-1,4-disulfonamide], the EC50 in the test with TFEB (Homo sapiens, HeLa, 1.5 h) was 676 nM; at TRPML1 it was 242 nM.
On the same counts, the results for `CC(C)CN(C)c1c(Cl)cccc1NS(=O)(=O)c1ccc(S(=O)(=O)N(C)C)cc1` [Compound 76, N1-(3-chloro-2-(isobutyl(methyl)amino)phenyl)-N4,N4-dimethylbenzene-1,4-disulfonamide] are 330 nM and 521 nM.
For the molecule `CCN(CC)c1c(Cl)cccc1NS(=O)(=O)c1ccc(S(=O)(=O)N(C)C)cc1` [Compound 77, N1-(3-chloro-2-(diethylamino)phenyl)-N4,N4-dimethylbenzene-1,4-disulfonamide], the EC50 in the test with TFEB (Homo sapiens, HeLa, 1.5 h) was 705 nM; at TRPML1, 472 nM.
For the molecule `CCN(C)c1c(Cl)cccc1NS(=O)(=O)c1ccc(S(=O)(=O)N(C)C)cc1` [Compound 78, N1-(3-chloro-2-(ethyl(methyl)amino)phenyl)-N4,N4-dimethylbenzene-1,4-disulfonamide], the EC50 in the test on TFEB (Homo sapiens, HeLa, 1.5 h) was 1460 nM; at TRPML1, 868 nM.
On the same counts, the results for `CN(C)S(=O)(=O)c1ccc(S(=O)(=O)Nc2ccccc2N(CC(F)(F)F)C2CCCCC2)cc1` [Compound 81, N1-(2-(cyclohexyl(2,2,2-trifluoroethyl)amino)phenyl)-N4,N4-dimethylbenzene-1,4-disulfonamide] are 323 nM and 461 nM.
For `CN(C)S(=O)(=O)c1ccc(S(=O)(=O)Nc2ccccc2N(CC2COC2)C2CCCCC2)cc1` [Compound 84, N1-(2-(Cyclohexyl(oxetan-3-ylmethyl)amino)phenyl)-N4,N4-dimethylbenzene-1,4-disulfonamide] the same measures were 664 nM and 567 nM.
For `Cc1nc(CN(C)c2ccccc2NS(=O)(=O)c2ccc(S(=O)(=O)N(C)C)cc2)ccc1F` [Compound 85, N1-(2-(((5-fluoro-6-methylpyridin-2-yl)methyl)(methyl)amino)phenyl)-N4,N4-dimethylbenzene-1,4-disulfonamide] the same measures were 1000 nM and 447 nM.
Consider `CN(c1ccccc1NS(=O)(=O)c1ccc(S(=O)(=O)N(C)C)cc1)C1CCOC2(CCC2)C1` (stereo not shown) [Compound 87, N1,N1-dimethyl-N4-(2-(methyl(5-oxaspiro[3.5]nonan-8-yl)amino)phenyl)benzene-1,4-disulfonamide], for which the EC50 with TFEB (Homo sapiens, HeLa, 1.5 h) was 674 nM; at TRPML1, 823 nM.
For the molecule `CN(c1ccc(C#N)cc1NS(=O)(=O)c1ccc(S(=O)(=O)N(C)C)cc1)C1CCCCC1` [Compound 89, N1-(5-cyano-2-(cyclohexyl(methyl)amino)phenyl)-N4,N4-dimethylbenzene-1,4-disulfonamide], the EC50 in the test on TFEB (Homo sapiens, 1.5 h) was 2400 nM; at TRPML1, 681 nM.
With `CN(c1c(C#N)cccc1NS(=O)(=O)c1ccc(S(=O)(=O)N(C)C)cc1)C1CCCCC1` [Compound 91, N1-(3-cyano-2-(cyclohexyl(methyl)amino)phenyl)-N4,N4-dimethylbenzene-1,4-disulfonamide], the EC50 was found to be 199 nM in the test with TFEB (Homo sapiens, HeLa, 1.5 h) and 77.2 nM at TRPML1.
On the same counts, the results for `CN(CC1(F)CCCC1)c1ccccc1NS(=O)(=O)c1ccc(S(=O)(=O)N(C)C)cc1` [Compound 93, N1-(2-(((1-fluorocyclopentyl)methyl)(methyl)amino)phenyl)-N4,N4-dimethylbenzene-1,4-disulfonamide] are 649 nM and 857 nM.
As for `CN(CC1(F)CC1)c1ccccc1NS(=O)(=O)c1ccc(S(=O)(=O)N(C)C)cc1` [Compound 95, N1-(2-(((1-fluorocyclopropyl)methyl)(methyl)amino)phenyl)-N4,N4-dimethylbenzene-1,4-disulfonamide], the EC50 amounted to 915 nM with TFEB; 1270 nM in the test on TFEB (Homo sapiens, HeLa, 1.5 h); 274 nM at TRPML1.
As for `CN(CC1(F)CCCCC1)c1ccccc1NS(=O)(=O)c1ccc(S(=O)(=O)N(C)C)cc1` [Compound 96, N1-(2-(((1-fluorocyclohexyl)methyl)(methyl)amino)phenyl)-N4,N4-dimethylbenzene-1,4-disulfonamide], the concentration for a half-maximal effect (EC50) with TFEB (Homo sapiens, 1.5 h) came out at 140 nM; on TRPML1 it was 247 nM.
